# Measured values reported in ChEMBL document CHEMBL3612044, “Phosphate Chemical Probes Designed for Location Specific Inhibition of Intracellular Carbonic Anhydrases” (J Med Chem, 2015).
# Target: Carbonic anhydrase 9 (Homo sapiens, UniProt Q16790)
# Assay: Inhibition of human carbonic anhydrase-9 by stopped-flow CO2 hydration assay
row,SMILES,Ki [nM]
1,CC(=O)O[C@@H]1[C@@H](OC(C)=O)[C@H](n2cc(-c3ccc(S(N)(=O)=O)cc3)nn2)O[C@H](COP2(=O)OCc3ccccc3O2)[C@H]1OC(C)=O (stereo not given in full),84.3
2,CC(=O)O[C@@H]1[C@@H](OC(C)=O)[C@H](n2cc(-c3ccc(S(N)(=O)=O)cc3)nn2)O[C@H](COP(=O)(OCCSC(=O)C(C)(C)C)OCCSC(=O)C(C)(C)C)[C@H]1OC(C)=O,135
3,CC(=O)O[C@@H]1[C@@H](OC(C)=O)[C@H](S(N)(=O)=O)O[C@H](COP(=O)(OCCSC(=O)C(C)(C)C)OCCSC(=O)C(C)(C)C)[C@H]1OC(C)=O,154
4,NS(=O)(=O)c1ccc(-c2cn([C@@H]3O[C@H](COP(=O)(O)O)[C@@H](O)[C@H](O)[C@H]3O)nn2)cc1,248
5,NS(=O)(=O)[C@@H]1O[C@H](COP(=O)(O)O)[C@@H](O)[C@H](O)[C@H]1O,213
